PubChem BioAssay (NCI)
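In this assay, cells in 96-well plates receive the compound at five concentrations for 48 hours. Endpoints are linearly interpolated between the surrounding concentrations. TGI: total growth inhibition.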

Experiments:
Assay in all cases: DTP human tumour cell line panel, 48 h
M19-MEL melanoma = tested on: M19-MEL melanoma
KM20L2 colon = tested on: KM20L2 colon
DMS 114 small cell lung = tested on: DMS 114 small cell lung
DMS 273 small cell lung = tested on: DMS 273 small cell lung
HOP-18 NSCLC = tested on: HOP-18 NSCLC
SNB-78 CNS = tested on: SNB-78 CNS
LXFL 529 NSCLC = tested on: LXFL 529 NSCLC
XF 498 CNS = tested on: XF 498 CNS
RXF-631 renal = tested on: RXF-631 renal

SMILES: O=C(Cc1ccccc1)NN1C(=O)C(Cl)C1c1cccc([N+](=O)[O-])c1 (stereo not given)
- TGI (M19-MEL melanoma): > 37.1 µM
- TGI (KM20L2 colon): > 100 µM
- TGI (DMS 114 small cell lung): > 93.4 µM
- TGI (DMS 273 small cell lung): > 100 µM
- TGI (HOP-18 NSCLC): > 100 µM
- TGI (SNB-78 CNS): > 100 µM
- TGI (LXFL 529 NSCLC): 49.7 µM
- TGI (XF 498 CNS): > 57.1 µM

SMILES: Cc1ccc(C(=O)N2CCCCC2)cc1N=NN(C)C
- TGI (M19-MEL melanoma): > 100 µM
- TGI (DMS 114 small cell lung): > 100 µM
- TGI (DMS 273 small cell lung): > 100 µM
- TGI (LXFL 529 NSCLC): > 100 µM

SMILES: O=C1C=CC(=O)c2cc(Sc3ccccc3)c(=O)c(Sc3ccccc3)cc21
- TGI (M19-MEL melanoma): > 100 µM
- TGI (KM20L2 colon): > 100 µM
- TGI (DMS 114 small cell lung): 53.7 µM
- TGI (DMS 273 small cell lung): > 100 µM
- TGI (HOP-18 NSCLC): > 100 µM
- TGI (LXFL 529 NSCLC): 70.3 µM
- TGI (XF 498 CNS): > 100 µM

SMILES: O=P(CCOc1ccccc1OCCP(=O)(c1ccccc1)c1ccc2c(c1)OCCOCCOCCOCCO2)(c1ccccc1)c1ccc2c(c1)OCCOCCOCCOCCO2 (stereo not given)
- TGI (M19-MEL melanoma): > 100 µM
- TGI (KM20L2 colon): > 100 µM
- TGI (DMS 114 small cell lung): > 100 µM
- TGI (DMS 273 small cell lung): > 100 µM
- TGI (SNB-78 CNS): > 100 µM
- TGI (LXFL 529 NSCLC): > 100 µM
- TGI (XF 498 CNS): > 100 µM

SMILES: CC1=NC=C(O)c2ccccc2O1
- TGI (M19-MEL melanoma): > 100 µM
- TGI (KM20L2 colon): > 100 µM
- TGI (DMS 114 small cell lung): > 100 µM
- TGI (DMS 273 small cell lung): > 100 µM
- TGI (SNB-78 CNS): > 100 µM
- TGI (LXFL 529 NSCLC): > 100 µM

SMILES: CN(C)CCN(C)C(=O)C1CCCN1C(=O)OCc1ccccc1 (stereo not given)
- TGI (M19-MEL melanoma): > 100 µM
- TGI (KM20L2 colon): > 100 µM
- TGI (DMS 114 small cell lung): > 100 µM
- TGI (DMS 273 small cell lung): > 100 µM
- TGI (SNB-78 CNS): > 100 µM
- TGI (LXFL 529 NSCLC): > 100 µM
- TGI (XF 498 CNS): > 100 µM

SMILES: CCCCCC#COC1CC(C)CC[C@@H]1C(C)C (stereo not given in full)
- TGI (M19-MEL melanoma): > 100 µM
- TGI (KM20L2 colon): > 100 µM
- TGI (DMS 273 small cell lung): > 100 µM
- TGI (HOP-18 NSCLC): > 100 µM
- TGI (SNB-78 CNS): > 100 µM
- TGI (LXFL 529 NSCLC): > 100 µM

SMILES: O=C(CCN1CCC(CCO)CC1)Nc1ccc2c(c1)C(=O)c1ccc(NC(=O)CCN3CCC(CCO)CC3)cc1C2=O
- TGI (M19-MEL melanoma): > 100 µM
- TGI (KM20L2 colon): 77.8 µM
- TGI (DMS 114 small cell lung): 21.7 µM
- TGI (DMS 273 small cell lung): 19.8 µM
- TGI (HOP-18 NSCLC): 80.1 µM
- TGI (SNB-78 CNS): 21.6 µM
- TGI (LXFL 529 NSCLC): 19.8 µM

SMILES: CCCCCCCC(CC(=O)NC(CO)C(=O)NC(CO)CC(C)C)OC(=O)CC(CCCCCCC)OC(=O)CC(CCCCCCC)OC1OC(C)C(O)C(OC2OC(C)C(O)C(O)C2O)C1O (stereo not given)
- TGI (M19-MEL melanoma): 23.3 µM
- TGI (KM20L2 colon): 32.1 µM
- TGI (DMS 114 small cell lung): 16.5 µM
- TGI (DMS 273 small cell lung): 24 µM
- TGI (HOP-18 NSCLC): 32.1 µM
- TGI (SNB-78 CNS): 39.1 µM
- TGI (LXFL 529 NSCLC): 18.1 µM

SMILES: COc1ccc2[nH]c3c4c(cc(-c5ccccc5)c3c2c1)C(=O)N(c1ccccc1)C4=O
- TGI (M19-MEL melanoma): > 100 µM
- TGI (KM20L2 colon): > 100 µM
- TGI (DMS 114 small cell lung): > 100 µM
- TGI (DMS 273 small cell lung): 36.8 µM
- TGI (HOP-18 NSCLC): > 100 µM
- TGI (SNB-78 CNS): > 88.3 µM
- TGI (LXFL 529 NSCLC): 64.3 µM

SMILES: CC(=O)Oc1ccc(Nn2c3ccccc3c3ccccc32)c(C)c1
- TGI (M19-MEL melanoma): > 100 µM
- TGI (KM20L2 colon): 78.9 µM
- TGI (DMS 114 small cell lung): 79.8 µM
- TGI (DMS 273 small cell lung): 51.9 µM
- TGI (HOP-18 NSCLC): 75.8 µM
- TGI (SNB-78 CNS): 91.2 µM
- TGI (LXFL 529 NSCLC): > 100 µM
- TGI (XF 498 CNS): 77.3 µM

SMILES: O=C(Cc1ccccc1)N/N=C(/c1nc2ccc([N+](=O)[O-])cc2[nH]c1=O)C(O)c1ccc(C(O)/C(=N/NC(=O)Cc2ccccc2)c2nc3ccc([N+](=O)[O-])cc3[nH]c2=O)cc1 (stereo not given)
- TGI (M19-MEL melanoma): > 100 µM
- TGI (KM20L2 colon): > 100 µM
- TGI (DMS 114 small cell lung): > 100 µM
- TGI (RXF-631 renal): > 100 µM
- TGI (LXFL 529 NSCLC): > 100 µM
- TGI (XF 498 CNS): > 100 µM

SMILES: CN(C)CC1CCCCCCCCCCCCC(CN(C)C)C1=O (stereo not given)
- TGI (M19-MEL melanoma): 25.1 µM
- TGI (KM20L2 colon): 24.9 µM
- TGI (DMS 114 small cell lung): 31.3 µM
- TGI (DMS 273 small cell lung): 22.9 µM
- TGI (HOP-18 NSCLC): 30.1 µM
- TGI (SNB-78 CNS): 28.7 µM
- TGI (LXFL 529 NSCLC): 28.1 µM

SMILES: O=[N+]([O-])c1ccc(CN=C2NNS(=O)(=O)c3ccccc32)cc1
- TGI (M19-MEL melanoma): > 100 µM
- TGI (KM20L2 colon): > 100 µM
- TGI (DMS 114 small cell lung): > 100 µM
- TGI (DMS 273 small cell lung): > 100 µM
- TGI (RXF-631 renal): > 100 µM
- TGI (SNB-78 CNS): > 100 µM
- TGI (LXFL 529 NSCLC): > 100 µM
- TGI (XF 498 CNS): > 100 µM
